From patent US4397860A, “Benzodioxanyl imidazoline compounds, compositions and use” (Reckitt & Colman Products Limited, priority 1981, dated 1983)
Where a name gives a salt, the structure may show the parent alone. Read-outs that look alike come from different tables or passages of the source.

Experiments:
[1] = molecular target: T1, pre-synaptic α2-adrenoreceptor (Mus musculus, UniProt Q01338); test: Pre-synaptic α2-adrenoreceptor agonist activity, mouse vas deferens (inhibition of twitch responses); set-up: key: I.A.: inactive; settings: potency relative to clonidine = 1
T1 construct: from tissue; host or cells: mouse vas deferens
T1 sequence (Q01338 1-465): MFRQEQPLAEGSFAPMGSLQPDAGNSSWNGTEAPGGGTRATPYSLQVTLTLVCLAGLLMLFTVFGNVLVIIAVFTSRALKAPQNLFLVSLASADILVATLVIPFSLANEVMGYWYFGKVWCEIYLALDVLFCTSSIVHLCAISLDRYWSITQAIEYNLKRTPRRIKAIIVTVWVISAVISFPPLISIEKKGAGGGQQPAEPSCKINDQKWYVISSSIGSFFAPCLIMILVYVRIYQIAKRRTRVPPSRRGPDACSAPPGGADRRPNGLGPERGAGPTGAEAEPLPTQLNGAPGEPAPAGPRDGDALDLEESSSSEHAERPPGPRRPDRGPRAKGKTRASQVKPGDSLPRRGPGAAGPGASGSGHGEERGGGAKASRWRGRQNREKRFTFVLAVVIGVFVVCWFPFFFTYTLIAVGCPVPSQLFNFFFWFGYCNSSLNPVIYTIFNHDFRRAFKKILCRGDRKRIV
Experimental: The pharmacological activity of the compound of Example 1 (in formula I R^1 =methyl) has been compared with the activities of the isomeric compounds in which the methyl group is situated at differing positions in formula A. The procedures involved the measurement of agonist or antagonist activity at pre- and post-synaptic α-adrenoreceptors.
In the procedures outlined below agonist potency of the compounds was determined with respect to standard agents whereas antagonist potency was related to that of the compound of formula A. Pre- and post-synaptic studies were carried out in the mouse vas deferens and rat anococcygeus muscle respectively.
Pre-synaptic studies (α2)
The mouse vas deferens was stimulated at low frequency (0.1 Hz) and the "twitch" responses recorded. Pre-synaptic α2 -adrenoreceptor agonist activity was determined by assessing the ability of compounds to inhibit these contractions. When inhibition was seen the potency of the individual compounds was related to that of the standard α2 -adrenoreceptor agonist clonidine.

[2] = test system: pre-synaptic α2-adrenoreceptor; test: Pre-synaptic α2-adrenoreceptor antagonist activity, mouse vas deferens (reversal of clonidine inhibition); settings: for α2/α1 selectivity: selectivity relative to the compound of formula A, mouse vas deferens / rat anococcygeus
[3] = molecular target: T2, postsynaptic α1-adrenoreceptor (Rattus norvegicus, UniProt P43140); test: Post-synaptic α1-adrenoreceptor agonist activity, rat anococcygeus muscle (contractions); set-up: key: I.A.: inactive; settings: potency relative to phenylephrine = 1
T2 construct: the rat anococcygeus muscle is used to establish postsynaptic α1 -adrenoreceptor activity; from tissue; host or cells: rat anococcygeus muscle
T2 sequence (P43140 1-466): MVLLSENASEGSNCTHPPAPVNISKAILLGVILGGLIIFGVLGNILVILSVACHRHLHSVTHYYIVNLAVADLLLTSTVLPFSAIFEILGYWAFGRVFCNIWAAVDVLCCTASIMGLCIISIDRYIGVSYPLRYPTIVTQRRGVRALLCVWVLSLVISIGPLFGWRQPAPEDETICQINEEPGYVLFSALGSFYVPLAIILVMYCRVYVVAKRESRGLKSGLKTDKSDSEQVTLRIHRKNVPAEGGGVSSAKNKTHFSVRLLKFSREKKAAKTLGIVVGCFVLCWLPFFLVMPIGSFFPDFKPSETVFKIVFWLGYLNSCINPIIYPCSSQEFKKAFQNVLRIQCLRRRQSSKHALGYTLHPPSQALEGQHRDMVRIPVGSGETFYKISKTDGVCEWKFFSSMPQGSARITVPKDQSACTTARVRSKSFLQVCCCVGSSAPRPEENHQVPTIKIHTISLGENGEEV

[4] = molecular target: T2, postsynaptic α1-adrenoreceptor; test: Post-synaptic α1-adrenoreceptor antagonist activity, rat anococcygeus muscle (noradrenaline-induced contractions)
[5] = molecular target: T2, postsynaptic α1-adrenoreceptor; test: Postsynaptic α1-adrenoreceptor antagonism vs noradrenaline contractions, isolated rat anococcygeus muscle; settings: mean of minimum 5 experiments, read-out: Postsynaptic antagonism pA2 vs Noradrenaline (anococcygeus) (converted)
[6] = test system: presynaptic α2-adrenoreceptors; settings: from G.B. 2,068,376A / U.S. Ser. No. 230,195; cited from earlier work
[7] = rat anococcygeus muscle vs noradrenaline, dose-ratio of 2, […]

α1 potency: Antagonism [4]	SMILES	α2 potency: Agonism [1]	α2/α1 selectivity [2]	α1 potency: Agonism [3]	Kb [5] [nM]	selectivity relative to the compound of formula A (in words) ([2]; Table 3)	α1 potency: Antagonism [4, 7]	α1 potency: Antagonism (result in words) ([4]; rat anococcygeus muscle vs noradrenaline, 20ng/ml)	selectivity in blocking presynaptic α2-adrenoreceptors (in words) [6]
1.0	CN1CCN=C1C1COc2ccccc2O1 (stereo not drawn) [3^1 -methyl]	I.A.	0.003	I.A.	–	–	–	–	–
–	CC1(C2=NCCN2)COc2ccccc2O1 (stereo not drawn) [Example 1, 2-[2-(2-Methyl-1,4-benzodioxanyl)]-2-imidazoline hydrochloride]	I.A.	2.4	I.A.	2510	rather more than twice as selective as the compound of formula A	0.28	–	–
–	CC1Oc2ccccc2OC1C1=NCCN1 (stereo not drawn) [Example 3-methyl]	I.A.	–	I.A.	–	–	< 0.023	–	–
–	Cc1cccc2c1OCC(C1=NCCN1)O2 (stereo not drawn) [Example 5-methyl]	0.1	–	1.0	–	–	–	Potentiation	–
–	Cc1ccc2c(c1)OCC(C1=NCCN1)O2 (stereo not drawn) [Example 6-methyl]	I.A.	0.7	I.A.	–	–	< 0.11	–	–
–	Cc1ccc2c(c1)OC(C1=NCCN1)CO2 (stereo not drawn) [Example 7-methyl]	I.A.	0.64	0.004	–	–	0.125	–	–
–	Cc1cccc2c1OC(C1=NCCN1)CO2 (stereo not drawn) [Example 8-methyl]	0.01	–	2.1	–	–	–	–	–
–	c1ccc2c(c1)OCC(C1=NCCN1)O2 (stereo not drawn) [formula A, 2-[2-(1,4-benzodioxanyl)]-2-imidazoline]	–	–	–	–	–	–	–	high degree of selectivity in blocking presynaptic α2 -adrenoreceptors
